Molecular target: T1, cGAMP binding domain of wild-type (GRR) human STING, residues 155-341 (Homo sapiens, UniProt Q86WV6, H232R)
T1 construct: His-TEV-hSTING (WT); TEV protease cleavage site (N); made in house; host or cells: E. coli BL21 DE3
Assay: Increase of stability of STING protein against thermal denaturation, Differential Scanning Fluorimetry (DSF)
Procedure, shortened: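 3 µM His-tagged protein with 100 uM compound, 5×SYPRO Orange, 2% DMSO in 20 mM Tris, 150 mM NaCl, pH7.5; 15–95 °C ramp in 0.5 °C steps (15 s/cycle). Tm from Boltzmann fit of the dye melt curve, duplicates averaged, repeated if SD>1.5 °C; ΔTm = Tm with compound minus Tm of protein alone.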

T1 sequence (Q86WV6 with tags, fused parts or gaps H232R): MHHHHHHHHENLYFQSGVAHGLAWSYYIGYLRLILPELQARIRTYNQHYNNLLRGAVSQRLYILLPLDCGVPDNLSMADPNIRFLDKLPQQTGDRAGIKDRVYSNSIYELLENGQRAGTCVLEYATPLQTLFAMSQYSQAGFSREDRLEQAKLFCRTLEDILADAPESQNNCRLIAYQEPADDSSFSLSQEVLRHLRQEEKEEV

Row | Structure (SMILES) | DSF [K]
1 | Cc1nc2nn(C)cc2cc1-n1nc(-c2cccc3nn(C[C@H](OCCC(C)(C)O)c4ccccc4)cc23)c(C(C)C)c1C [Example 74, 4-[(1R)-2-[4-(1-{2,6-dimethyl-2H-pyrazolo[3,4-b]pyridin-5-yl}-5-methyl-4-(propan-2-yl)-1H-pyrazol-3-yl)-2H-indazol-2-yl]-1-phenylethoxy]-2-methylbutan-2-ol] | 25
2 | Cc1c(C(C)C)c(-c2cccc3nn(C[C@H](O)c4ccccc4)cc23)nn1-c1ccn2c(C(F)F)nnc2c1C1CC1 [Example 76] | 26
3 | Cc1nc2nn(C)cc2cc1-n1nc(-c2cccc3nn(C[C@H](OCCF)c4ccccc4)cc23)c(C(C)C)c1C [Example 78, 4-(1-{2,6-dimethyl-2H-pyrazolo[3,4-b]pyridin-5-yl}-5-methyl-4-(propan-2-yl)-1H-pyrazol-3-yl)-2-[(2R)-2-(2-fluoroethoxy)-2-phenylethyl]-2H-indazole] | 24
4 | Cc1cc([C@@H](O)Cn2cc3c(-c4nn(-c5cc6cn(C)nc6nc5C)c(C)c4C(C)C)cccc3n2)ccn1 [Example 82, (1R)-2-[4-(1-{2,6-dimethyl-2H-pyrazolo[3,4-b]pyridin-5-yl}-5-methyl-4-(propan-2-yl)-1H-pyrazol-3-yl)-2H-indazol-2-yl]-1-(2-methylpyridin-4-yl)ethan-1-ol] | 27
5 | Cc1nc2nn(C)cc2cc1-n1nc(-c2cccc3nn(CC(O)C4CCCCC4)cc23)c(C(C)C)c1C (stereo not shown) [Example 83, 1-cyclohexyl-2-[4-(1-{2,6-dimethyl-2H-pyrazolo[3,4-b]pyridin-5-yl}-5-methyl-4-(propan-2-yl)-1H-pyrazol-3-yl)-2H-indazol-2-yl]ethan-1-ol] | 24
6 | COCCO[C@@H](Cn1cc2c(-c3nn(-c4cc5cn(C)nc5nc4C)c(C)c3C(C)C)cccc2n1)c1ccccc1 [Example 85, 4-(1-{2,6-dimethyl-2H-pyrazolo[3,4-b]pyridin-5-yl}-5-methyl-4-(propan-2-yl)-1H-pyrazol-3-yl)-2-[(2R)-2-(2-methoxyethoxy)-2-phenylethyl]-2H-indazole] | 23
7 | Cc1c(-n2nc(-c3cccc4nn(C[C@H](O)c5ccccc5)cc34)c(C(C)C)c2C)ccn2c(C)nnc12 [Example 86, (1R)-2-[4-(1-{3,8-dimethyl-[1,2,4]triazolo[4,3-a]pyridin-7-yl}-5-methyl-4-(propan-2-yl)-1H-pyrazol-3-yl)-2H-indazol-2-yl]-1-phenylethan-1-ol] | 28
8 | Cc1nc2nn(C)cc2cc1-n1nc(-c2cccc3nn(CC(O)c4ccc(Br)cc4)cc23)c(C(C)C)c1C (stereo not shown) [Example 88, 1-(4-Bromophenyl)-2-[4-(1-{2,6-dimethyl-2H-pyrazolo[3,4-b]pyridin-5-yl}-5-methyl-4-(propan-2-yl)-1H-pyrazol-3-yl)-2H-indazol-2-yl]ethan-1-ol] | 25
9 | Cn1cc2cc(-c3nc(-c4cccc5nn(C[C@H](O)c6ccc(OCC#N)cc6)cc45)c(C4CC4)n3C)c(C3CC3)nc2n1 [Example 90, 2-{4-[(1R)-2-[4-(5-cyclopropyl-2-{6-cyclopropyl-2-methyl-2H-pyrazolo[3,4-b]pyridin-5-yl}-1-methyl-1H-imidazol-4-yl)-2H-indazol-2-yl]-1-hydroxyethyl]phenoxy} acetonitrile] | 29
10 | Cn1cc([C@@H](O)Cn2cc3c(-c4nc(-c5cc6cn(C)nc6nc5C5CC5)n(C)c4C4CC4)cccc3n2)cn1 [Example 91, (1R)-2-[4-(5-cyclopropyl-2-{6-cyclopropyl-2-methyl-2H-pyrazolo[3,4-b]pyridin-5-yl}-1-methyl-1H-imidazol-4-yl)-2H-indazol-2-yl]-1-(1-methyl-1H-pyrazol-4-yl)ethan-1-ol] | 29
11 | Cc1nc2nn(C)cc2cc1-n1nc(-c2cccc3nn(C[C@H](O)c4ccccc4)cc23)c(C2(C)CC2)c1C [Example 92, (1R)-2-[4-(1-{2,6-Dimethyl-2H-pyrazolo[3,4-b]pyridin-5-yl}-5-methyl-4-(1-methylcyclopropyl)-1H-pyrazol-3-yl)-2H-indazol-2-yl]-1-phenylethan-1-ol] | 24
12 | CCc1c(-c2cccc3nn(C[C@H](O)c4ccccc4)cc23)nn(-c2cc3cn(C)nc3nc2C)c1CC [Example 93, (1R)-2-[4-(1-{2,6-dimethyl-2H-pyrazolo[3,4-b]pyridin-5-yl}-4,5-diethyl-1H-pyrazol-3-yl)-2H-indazol-2-yl]-1-phenylethan-1-ol] | 26
13 | Cc1c(-n2nc(-c3cccc4nn(C[C@H](O)c5ccccc5)cc34)c(C(C)C)c2C)ccn2c(C)cnc12 [Example 94, (1R)-2-[4-(1-{3,8-dimethylimidazo[1,2-a]pyridin-7-yl}-5-methyl-4-(propan-2-yl)-1H-pyrazol-3-yl)-2H-indazol-2-yl]-1-phenylethan-1-ol] | 27

Further lines, results first:

Row | DSF [K] | Structure (SMILES)
14 | 28 | [2H][C@](O)(Cn1cc2c(-c3nn(-c4cc5cn(C)nc5nc4C)c(C)c3C(C)C)cccc2n1)c1ccccc1 [Example 3, (1R)-2-[4-(1-{2,6-dimethyl-2H-pyrazolo[3,4-b]pyridin-5-yl}-5-methyl-4-(propan-2-yl)-1H-pyrazol-3-yl)-2H-indazol-2-yl]-1-phenyl(1-^2H)ethan-1-ol]
15 | 28 | COC(C)c1nc2nn(C)cc2cc1-n1nc(-c2cccc3nn(C[C@H](O)c4ccccc4)cc23)c(C(C)C)c1C (stereo partly shown) [Example 75]
16 | 23 | C=CCO[C@@H](Cn1cc2c(-c3nn(-c4cc5cn(C)nc5nc4C)c(C)c3C(C)C)cccc2n1)c1ccccc1 [Example 79, 4-(1-{2,6-dimethyl-2H-pyrazolo[3,4-b]pyridin-5-yl}-5-methyl-4-(propan-2-yl)-1H-pyrazol-3-yl)-2-[(2R)-2-phenyl-2-(prop-2-en-1-yloxy)ethyl]-2H-indazole]
17 | 26 | Cc1c(C(C)C)c(-c2cccc3nn(C[C@H](O)c4ccccc4)cc23)nn1-c1cc2cn(C)nc2nc1C1(C)CC1 [Example 80, (1R)-2-(4-{5-methyl-1-[2-methyl-6-(1-methylcyclopropyl)-2H-pyrazolo[3,4-b]pyridin-5-yl]-4-(propan-2-yl)-1H-pyrazol-3-yl}-2H-indazol-2-yl)-1-phenylethan-1-ol]
18 | 22 | CCCO[C@@H](Cn1cc2c(-c3nn(-c4cc5cn(C)nc5nc4C)c(C)c3C(C)C)cccc2n1)c1ccccc1 [Example 81, 4-(1-{2,6-dimethyl-2H-pyrazolo[3,4-b]pyridin-5-yl}-5-methyl-4-(propan-2-yl)-1H-pyrazol-3-yl)-2-[(2R)-2-phenyl-2-propoxyethyl]-2H-indazole]
19 | 27 | CNc1nc2nn(C)cc2cc1-n1nc(-c2cccc3nn(C[C@H](O)c4ccccc4)cc23)c(C(C)C)c1C [Example 84, (1R)-2-(4-{5-methyl-1-[2-methyl-6-(methylamino)-2H-pyrazolo[3,4-b]pyridin-5-yl]-4-(propan-2-yl)-1H-pyrazol-3-yl}-2H-indazol-2-yl)-1-phenylethan-1-ol]
20 | 24 | Cc1c(C(C)C)c(-c2cccc3nn(C[C@H](O)c4ccccc4)cc23)nn1-c1cc2cn(C)nc2nc1N(C)C [Example 87, (1R)-2-(4-{1-[6-(dimethylamino)-2-methyl-2H-pyrazolo[3,4-b]pyridin-5-yl]-5-methyl-4-(propan-2-yl)-1H-pyrazol-3-yl}-2H-indazol-2-yl)-1-phenylethan-1-ol]
21 | 24 | Cc1c(C(C)C)c(-c2cccc3nn(C[C@H](O)c4ccccc4)cc23)nn1-c1cc2cn(C)nc2nc1C(C)(C)O [Example 89, 2-[5-(3-{2-[(2R)-2-hydroxy-2-phenylethyl]-2H-indazol-4-yl}-5-methyl-4-(propan-2-yl)-1H-pyrazol-1-yl)-2-methyl-2H-pyrazolo[3,4-b]pyridin-6-yl]propan-2-ol]
22 | 24 | Cc1nc2nn(C)cc2cc1-n1nc(-c2cccc3nn(C[C@H](O)c4ccccc4)cc23)c(C(C)CO)c1C (stereo partly drawn) [Example 95, 2-(1-{2,6-dimethyl-2H-pyrazolo[3,4-b]pyridin-5-yl}-3-{2-[(2R)-2-hydroxy-2-phenylethyl]-2H-indazol-4-yl}-5-methyl-1H-pyrazol-4-yl)propan-1-ol]
